In ChEMBL document CHEMBL1817594, “Multi-target strategy to address Alzheimer's disease: design, synthesis and biological evaluation of new tacrine-based dimers” (Eur J Med Chem, 2011):

Experiments:
Beta-secretase 1 [1] = target: T1, Beta-secretase 1 (Homo sapiens, UniProt P56817); test: Inhibition of BACE1 expressed in baculovirus assessed as inhibition of amyloid beta-42 production at 10 uM after 60 mins by spectrofluorometric assay
Cholinesterase = Cholinesterase (Homo sapiens, UniProt P06276)
Description: Inhibition of human serum recombinant BChE using butyrylthiocholine iodide as substrate preincubated for 20 mins by Ellman's method

Acetylcholinesterase [2] = target: T2, Acetylcholinesterase (Homo sapiens, UniProt P22303)
Description: Inhibition of human serum recombinant AChE using acetylthiocholine iodide as substrate preincubated for 20 mins by Ellman's method

Acetylcholinesterase [3] = target: T2, Acetylcholinesterase; test: Mixed-type inhibition of human AChE assessed as hydrolysis of acetylthiocholine by Lineweaver-Burk plot analysis
Beta-secretase 1 [4] = target: T1, Beta-secretase 1
Description: Inhibition of BACE1 expressed in baculovirus assessed as inhibition of amyloid beta-42 production after 60 mins by spectrofluorometric assay

T1 sequence (P56817 whole entry): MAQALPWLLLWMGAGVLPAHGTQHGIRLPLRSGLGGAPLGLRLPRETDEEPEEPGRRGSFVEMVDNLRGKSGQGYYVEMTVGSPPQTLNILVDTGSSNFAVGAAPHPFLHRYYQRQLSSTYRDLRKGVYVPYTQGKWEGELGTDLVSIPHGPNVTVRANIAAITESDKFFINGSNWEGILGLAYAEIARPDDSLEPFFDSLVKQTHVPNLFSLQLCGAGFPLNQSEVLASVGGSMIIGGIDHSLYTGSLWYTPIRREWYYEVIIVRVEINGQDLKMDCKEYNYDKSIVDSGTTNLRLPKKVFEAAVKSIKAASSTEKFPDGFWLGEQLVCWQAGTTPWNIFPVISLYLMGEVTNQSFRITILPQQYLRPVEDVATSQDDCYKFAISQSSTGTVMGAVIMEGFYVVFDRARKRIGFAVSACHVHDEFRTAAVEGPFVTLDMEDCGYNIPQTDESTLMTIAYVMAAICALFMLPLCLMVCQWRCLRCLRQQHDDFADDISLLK
T2 sequence (P22303 whole entry): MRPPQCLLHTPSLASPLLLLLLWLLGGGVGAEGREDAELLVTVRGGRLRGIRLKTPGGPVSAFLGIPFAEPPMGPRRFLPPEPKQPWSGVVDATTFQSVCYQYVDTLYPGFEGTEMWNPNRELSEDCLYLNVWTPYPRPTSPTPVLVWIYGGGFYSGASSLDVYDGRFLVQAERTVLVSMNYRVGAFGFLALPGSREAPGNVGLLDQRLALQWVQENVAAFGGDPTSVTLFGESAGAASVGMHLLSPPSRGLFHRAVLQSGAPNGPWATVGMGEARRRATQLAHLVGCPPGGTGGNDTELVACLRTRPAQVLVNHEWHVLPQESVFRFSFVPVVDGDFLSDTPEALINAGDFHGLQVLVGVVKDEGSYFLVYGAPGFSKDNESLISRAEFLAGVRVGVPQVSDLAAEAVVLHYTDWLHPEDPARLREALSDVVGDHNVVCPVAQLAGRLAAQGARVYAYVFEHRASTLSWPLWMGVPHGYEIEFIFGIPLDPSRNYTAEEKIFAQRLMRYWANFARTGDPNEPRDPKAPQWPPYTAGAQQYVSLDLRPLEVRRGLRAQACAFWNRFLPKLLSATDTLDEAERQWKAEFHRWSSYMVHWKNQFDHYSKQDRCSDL
Sequence of Cholinesterase (P06276 whole entry): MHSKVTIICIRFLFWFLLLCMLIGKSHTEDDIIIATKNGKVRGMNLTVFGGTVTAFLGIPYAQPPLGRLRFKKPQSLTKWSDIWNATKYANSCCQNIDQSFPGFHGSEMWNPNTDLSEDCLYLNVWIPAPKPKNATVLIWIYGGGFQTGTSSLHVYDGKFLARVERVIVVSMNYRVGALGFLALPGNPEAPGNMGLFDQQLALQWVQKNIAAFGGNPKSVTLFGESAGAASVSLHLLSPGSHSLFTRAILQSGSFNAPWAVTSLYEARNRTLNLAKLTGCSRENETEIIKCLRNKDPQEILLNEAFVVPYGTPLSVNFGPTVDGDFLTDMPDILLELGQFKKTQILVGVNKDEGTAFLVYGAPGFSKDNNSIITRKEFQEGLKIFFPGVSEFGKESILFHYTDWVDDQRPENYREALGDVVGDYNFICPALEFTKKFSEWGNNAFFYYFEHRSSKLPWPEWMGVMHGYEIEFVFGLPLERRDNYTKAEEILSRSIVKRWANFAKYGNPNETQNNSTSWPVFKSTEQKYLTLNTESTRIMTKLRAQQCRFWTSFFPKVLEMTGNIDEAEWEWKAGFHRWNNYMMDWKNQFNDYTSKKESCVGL

| SMILES | inhibition (Beta-secretase 1 [1]) | IC50 (Cholinesterase) | IC50 (Acetylcholinesterase [2]) | Ki (Acetylcholinesterase [3]) | IC50 (Beta-secretase 1 [4]) |
| --- | --- | --- | --- | --- | --- |
| c1ccc2c(c1)Cc1c-2nc2ccccc2c1NCCCCCCCNc1c2c(nc3ccccc13)CCCC2 | 27% | 24.8 nM | 13.9 nM | – | – |
| Clc1ccc2c(NCCCCCCCNc3c4c(nc5cc(Cl)ccc35)-c3ccccc3C4)c3c(nc2c1)CCCC3 | – | 1660 nM | 12.1 nM | – | – |
| c1ccc2c(NCCCCCCCCCN3CCOCC3)c3c(nc2c1)CCCC3 | – | 38.1 nM | 34 nM | – | – |
| c1ccc2c(NCCCCCCCCN3CCOCC3)c3c(nc2c1)CCCC3 | – | 42.8 nM | 16.5 nM | – | – |
| Clc1ccc2c(NCCCCCCCOc3ccc(-c4cc5ccccc5o4)cc3)c3c(nc2c1)CCCC3 | – | 7280 nM | 310 nM | – | – |
| Clc1ccc2c(NCCCCCCCOc3cccc(-c4cc5ccccc5o4)c3)c3c(nc2c1)CCCC3 | – | 41.4 nM | 258 nM | – | – |
| c1ccc2c(NCCCCCCCCCCN3CCOCC3)c3c(nc2c1)CCCC3 | – | 14.7 nM | 28.4 nM | – | – |
| Clc1ccc2c(NCCCCCCCNc3c4c(nc5ccccc35)-c3ccccc3C4)c3c(nc2c1)CCCC3 | 27% | 63.7 nM | 1.05 nM | 1.01 nM | 1000 nM |
| c1ccc2c(NCCCCCCCN3CCOCC3)c3c(nc2c1)CCCC3 | – | 90.5 nM | 44.5 nM | – | – |
| O=c1c2ccc(OCCCCCCCNc3c4c(nc5ccccc35)CCCC4)cc2oc2ncccc12 | – | 101 nM | 283 nM | – | – |
| c1ccc2c(c1)Cc1c-2nc2ccccc2c1NCCCCCCCNc1c2c(nc3ccccc13)-c1ccccc1C2 | 27% | 28.6 nM | 455 nM | – | 400 nM |
| c1ccc2c(NCCCCCCN3CCOCC3)c3c(nc2c1)CCCC3 | – | 101 nM | 68.9 nM | – | – |
